In ChEMBL document CHEMBL4387740, “Discovery of ABT-957: 1-Benzyl-5-oxopyrrolidine-2-carboxamides as selective calpain inhibitors with enhanced metabolic stability” (Bioorg Med Chem Lett, 2019):

What was measured:
[1] = target: T1, Calpain-1 catalytic subunit (Homo sapiens, UniProt P07384); experiment: Inhibition of Cal1 (unknown origin)
T1 sequence (P07384 whole entry): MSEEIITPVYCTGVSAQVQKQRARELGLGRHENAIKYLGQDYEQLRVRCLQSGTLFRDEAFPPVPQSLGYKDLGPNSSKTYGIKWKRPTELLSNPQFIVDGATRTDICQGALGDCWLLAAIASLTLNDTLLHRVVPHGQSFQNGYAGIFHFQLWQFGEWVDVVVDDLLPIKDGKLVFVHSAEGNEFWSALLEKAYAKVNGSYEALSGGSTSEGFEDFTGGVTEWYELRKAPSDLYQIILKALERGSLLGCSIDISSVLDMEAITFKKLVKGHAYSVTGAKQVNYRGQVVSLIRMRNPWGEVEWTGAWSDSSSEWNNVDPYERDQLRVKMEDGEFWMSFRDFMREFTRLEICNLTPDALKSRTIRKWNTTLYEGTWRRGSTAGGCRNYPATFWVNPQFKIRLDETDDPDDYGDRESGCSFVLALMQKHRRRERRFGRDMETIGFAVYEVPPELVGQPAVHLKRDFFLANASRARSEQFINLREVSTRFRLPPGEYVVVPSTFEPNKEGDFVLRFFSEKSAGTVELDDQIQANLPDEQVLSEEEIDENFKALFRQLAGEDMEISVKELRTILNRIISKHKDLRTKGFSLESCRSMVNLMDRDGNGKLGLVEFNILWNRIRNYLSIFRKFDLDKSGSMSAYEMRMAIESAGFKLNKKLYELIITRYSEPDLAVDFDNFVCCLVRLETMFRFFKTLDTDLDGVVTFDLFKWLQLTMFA

[2] = species: Homo sapiens; experiment: Selectivity ratio, ratio of Ki for CatB (unknown origin) to Ki for Cal1 (unknown origin)
[3] = species: Homo sapiens; experiment: Selectivity ratio, ratio of Ki for CatK (unknown origin) to Ki for Cal1 (unknown origin)
[4] = species: Homo sapiens; experiment: Selectivity ratio, ratio of Ki for CatL (unknown origin) to Ki for Cal1 (unknown origin)
[5] = Selectivity ratio, ratio of Ki for CatS (unknown origin) to Ki for Cal1 (unknown origin); conditions: Homo sapiens
[6] = Intrinsic clearance in human liver cytosol; type: ADME, subcellular; conditions: read-out: CLH
[7] = Intrinsic clearance in human liver microsomes; type: ADME, Microsome; conditions: read-out: CLH
[8] = Intrinsic clearance in rat liver microsomes; type: ADME, Microsome; conditions: read-out: CLH
[9] = Intrinsic clearance in rat liver microsomes; conditions: read-out: CLH

SMILES | Ki [1] [nM] | Selectivity ratio [2] | Selectivity ratio [3] | Selectivity ratio [4] | Selectivity ratio [5] | microsomal CLint [6] [µL/min/mg] | microsomal CLint [7] [µL/min/mg] | microsomal CLint [8] [µL/min/mg] | microsomal CLint [9] [µL/min/mg]
CONC(=O)C(=O)C(Cc1ccccc1)NC(=O)[C@H]1CCC(=O)N1Cc1ccccc1 (some centres not stated) | 4360 | – | – | – | – | – | – | – | –
CCNC(=O)C(=O)C(Cc1ccccc1)NC(=O)[C@H]1CCC(=O)N1Cc1ccccc1 (mixture of isomers) | 165 | 55 | 85 | 44 | 60 | 4 | < 23 | < 23 | –
CC(C)(C)CN1C(=O)CC[C@@H]1C(=O)NC(Cc1ccccc1)C(=O)C(N)=O (mixture of isomers) | 1350 | 23 | 7 | 7 | 7 | – | – | – | –
NC(=O)C(=O)C(Cc1ccccc1)NC(=O)C1CCS(=O)(=O)N1Cc1ccccc1 (mixture of isomers) | 268 | 56 | 2 | 12 | 7 | – | – | – | –
NC(=O)C(=O)C(Cc1ccccc1)NC(=O)[C@H]1CCC(=O)N1Cc1ccncc1 (mixture of isomers) | 180 | 16 | 13 | 9 | 35 | – | – | – | –
Cn1cc(CN2C(=O)CC[C@@H]2C(=O)NC(Cc2ccccc2)C(=O)C(=O)NC2CN2)cn1 (some centres not stated) | 530 | – | – | – | – | 27 | – | – | 39
NC(=O)C(=O)C(Cc1ccccc1)NC(=O)[C@H]1CCC(=O)N1CC1CCCCC1 (mixture of isomers) | 200 | 8 | < 1 | 2 | 5 | – | – | – | –
Cc1ccc(S(=O)(=O)N2CCC[C@@H]2C(=O)NC(Cc2ccccc2)C(=O)C(N)=O)cc1 (mixture of isomers) | 129 | 72 | 14 | 4 | 14 | – | – | – | –
NC(=O)C(=O)C(Cc1ccccc1)NC(=O)[C@H]1CCC(=O)N1c1ccccc1 (mixture of isomers) | > 1350 | 28 | 6 | 7 | 11 | – | – | – | –
O=C1CC[C@H](C(=O)NC(Cc2ccccc2)C(=O)C(=O)NC2CC2)N1 (some centres not stated) | 9700 | – | – | – | – | < 23 | < 1 | – | < 23
NC(=O)C(=O)C(Cc1ccccc1)NC(=O)c1cccnc1-n1ccc(-c2ccc(F)cc2)n1 (configuration not stated) | – | 10 | 18 | 127 | > 300 | – | – | – | –
NC(=O)C(=O)C(Cc1ccccc1)NC(=O)[C@@H]1CCC(=O)N1Cc1ccccc1 (mixture of isomers) | 528 | 5 | 17 | 6 | 2 | – | – | – | –
O=C(NC1CC1)C(=O)C(Cc1ccccc1)NC(=O)[C@H]1CCC(=O)N1C1Cc2ccccc2C1 (some centres not stated) | 545 | – | – | – | – | 42 | 2 | – | 58

Continued by falling Ki [1], values first:

Ki [1] [nM] | Selectivity ratio [2] | Selectivity ratio [3] | Selectivity ratio [4] | Selectivity ratio [5] | microsomal CLint [6] [µL/min/mg] | microsomal CLint [7] [µL/min/mg] | microsomal CLint [8] [µL/min/mg] | microsomal CLint [9] [µL/min/mg] | SMILES
125 | 7 | 61 | 4 | 76 | – | – | – | – | NC(=O)C(=O)C(Cc1ccccc1)NC(=O)[C@H]1CCC(=O)N1Cc1cccc(OC(F)(F)F)c1 (mixture of isomers)
110 | 66 | 27 | 20 | 130 | 1 | 37 | > 100 | – | O=C(NC1CCC1)C(=O)C(Cc1ccccc1)NC(=O)[C@H]1CCC(=O)N1Cc1ccccc1 (some centres not stated)
101 | 72 | 4 | 3 | 2 | – | – | – | – | CN1C[C@H](C(=O)NC(Cc2ccccc2)C(=O)C(N)=O)N(Cc2ccccc2)C1=O (mixture of isomers)
90 | 33 | 109 | 162 | > 100 | > 70 | > 1 | – | > 100 | O=C(NC1CC1)C(=O)C(Cc1ccccc1)NC(=O)[C@H]1CCC(=O)N1Cc1ccccc1C(F)(F)F (some centres not stated)
82 | 15 | 2 | 4 | 13 | – | – | – | – | NC(=O)C(=O)C(Cc1ccccc1)NC(=O)c1cccc(=O)n1Cc1ccccc1 (configuration not stated)
73 | 18 | 93 | 57 | > 130 | > 70 | < 1 | – | > 100 | O=C(NC1CC1)C(=O)C(Cc1ccccc1)NC(=O)[C@H]1CCC(=O)N1Cc1ccccc1Cl (some centres not stated)
70 | 296 | 88 | 37 | > 400 | 5 | > 70 | > 100 | – | O=C(Nc1ccccc1)C(=O)C(Cc1ccccc1)NC(=O)[C@H]1CCC(=O)N1Cc1ccccc1 (some centres not stated)
64 | 14 | 4 | 21 | 56 | – | – | – | – | NC(=O)C(=O)C(Cc1ccccc1)NC(=O)[C@H]1CCCC(=O)N1Cc1ccccc1 (mixture of isomers)
59 | 17 | 102 | 65 | 524 | – | – | – | – | NC(=O)C(=O)C(Cc1ccccc1)NC(=O)[C@H]1CCC(=O)N1Cc1ccccc1C(F)(F)F (mixture of isomers)
57 | 5 | 33 | 41 | 127 | – | – | – | – | NC(=O)C(=O)C(Cc1ccccc1)NC(=O)[C@H]1CCC(=O)N1Cc1ccccc1OC(F)(F)F (mixture of isomers)
50 | 23 | 1 | 13 | 3 | – | – | – | – | C[C@H]1C[C@H](C(=O)NC(Cc2ccccc2)C(=O)C(N)=O)N(Cc2ccccc2)C1=O (mixture of isomers)
50 | 22 | > 200 | 17 | > 200 | > 70 | < 1 | – | > 100 | O=C(NC1CC1)C(=O)C(Cc1ccccc1)NC(=O)[C@H]1CCC(=O)N1Cc1ccccc1OC(F)(F)F (some centres not stated)
48 | 104 | 70 | 34 | 286 | 3 | > 70 | > 100 | – | O=C(NCc1ccc(F)cc1)C(=O)C(Cc1ccccc1)NC(=O)[C@H]1CCC(=O)N1Cc1ccccc1 (some centres not stated)
46 | 4 | 6 | 21 | 41 | – | – | – | – | CCCCC(NC(=O)[C@H]1CCC(=O)N1Cc1ccccc1)C(=O)C(N)=O (mixture of isomers)
36 | 51 | 120 | 387 | 395 | – | – | – | – | COc1cccc(C(F)(F)F)c1CN1C(=O)CC[C@@H]1C(=O)NC(Cc1ccccc1)C(=O)C(N)=O (mixture of isomers)
26 | 15 | 84 | 11 | 85 | – | – | – | – | NC(=O)C(=O)C(Cc1ccccc1)NC(=O)[C@H]1CCC(=O)N1Cc1cccc(C(F)(F)F)c1 (mixture of isomers)
